Here are results for eight molecules from patent US5360803A, “Composition and method for treating cancer” (Dan Farber Cancer Institute, priority 1992, dated 1994).

For one data set, the system named is normal nude mice. The data set is described as follows: toxicity to normal nude mice.
Another data set concerns CV-1 cells. The data set is described as follows: selective killing assay, colony number reduced to 50% of control, normal monkey kidney epithelial cell line CV-1. The class given is cell-based. Conditions: Primates, 24 hours treatment. An excerpt: (§1) The control received culture media only.
The next data set deals with CX-1 cells. Description: selective killing assay, colony number reduced to 50% of control, human colon carcinoma cell line CX-1.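 For all read-outs here: colonies stained with crystal violet and counted, control cells given medium alone, exposure at 37 °C, normal monkey kidney epithelial CV-1 cells as the non-cancer comparator.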 Conditions: for Selectivity (ratio of IC50 for CV-1 and IC50 for CX-1): CV-1/CX-1; for IC50: Homo sapiens, CX-1, Table III. In kind it is cell-based.
The subject of the next data set is MCF-7 cells. Description: colony assay of Example 1 with human breast carcinoma MCF-7 cell line. The class given is cell-based. The conditions noted are these: for Selectivity: CV-1/MCF-7.
Source text: as §1

In another data set the test system is CRL 1420 cells. Description: colony assay of Example 1 with human pancreatic carcinoma CRL 1420 cell line.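 For all read-outs here: colony formation assay, cells exposed for 24 h then regrown 7 to 10 days without compound, colonies stained with crystal violet, control given medium alone, normal reference CV-1 monkey kidney epithelial cells.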 In kind it is cell-based. Conditions: for Selectivity: CV-1/CRL-1420; for IC50: Homo sapiens, 24 h, Table VII, human pancreatic carcinoma, 24 hours treatment.
Data set [1] deals with human colon carcinoma CX-1. The data set is described as follows: anti-human colon carcinoma CX-1 activity using nude mice. The class given is in vivo, Swiss nu/nu mice (human tumor). The conditions noted are these: Mus musculus, ip, 24 h, read-out: Tumor Inhibition. An excerpt: Human colon carcinoma cell line CX-1 has been chosen by the National Cancer Institute as a mode for cancer drug screening (NCI Protocol 3C2H2). It was established in culture from the surgical explant of the primary colon adenocarcinoma of a person with no previous chemotherapy. The cultured CX-1 cells, upon subcutaneous injection, can grow readily in nude mice as a moderately- to well-differentiated human colon carcinoma. CEA is expressed as expected for differentiated colon carcinoma cells. Abundant keratin, consistent with epithelial origin, is present. Increased uptake and prolonged retention of delocalized lipophilic cations are observed.
Swiss nu/nu mice obtained from Taconic Farm were housed in a pathogen-free environment. Tumors subcutaneously passaged in nude mice were excised under sterile conditions and converted to a single cell suspension using a metal grid with a 0.4 mm mesh. Red blood cells were lysed by incubation with 0.17M ammonium chloride at 4° C. for 20 minutes. Cells were scored for viability with trypan blue. Viable CX-1 cells (2.5 million) made up in 0.1 ml of […]. The mice were randomly allocated into a control group (five mice) and a treatment group (five mice per group). The drug treatment was commenced the next day. Doses and schedules were developed empirically and were based mainly on information on LD50 and LD1O obtained from preliminary toxicity studies. The control group received an equivalent volume of hydroxypropyl-β-cyclodextrin-5% glucose solution.
The pharmaceutical compositions tested comprised solutions in 5% glucose subjected to sonication at concentrations of 1 mg/ml. Those compounds which were not completely dissolved by this procedure were dissolved hydroxypropyl-β-cyclodextrin using the following method. Hydroxypropyl-β-cyclodextrin (45 g) was mixed with 100 ml of sterilized, double distilled water and stirred for four hours. Each of the compounds to be tested (20 mg) was mixed with 10 ml of hydroxypropyl-β-cyclodextrin solution and sonicated for 60 minutes in the dark. This solution was then diluted in 5% glucose to yield a final compound concentration of 0.5 mg/ml, and further sonicated for 60 minutes in the dark to assure that the compound was completely dissolved.
When the growth of tumors in the control group reached the exponential phase and the size of the tumor was palpable (usually 20 to 30 days after tumor implantation), the experiments were terminated. Tumors in each mouse were excised and weighed using an analytical balance. Total tumor weight in each group from five mice was calculated. Per cent tumor inhibition between the treated group and the control group was then calculated for each group.

The test system of another data set is LOX cells. The data set is described as follows: colony assay of Example 1 with human melanoma LOX cell line.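 For all read-outs here: colony formation assay with 24 h exposure at 37 °C, then 7 to 10 days of regrowth, crystal violet staining of colonies, control wells given medium alone.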 In kind it is cell-based. Conditions: for Selectivity: CV-1/LOX.
A further data set has as its system EJ cells. The data set is described as follows: colony assay of Example 1 with human bladder carcinoma EJ cell line.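 For all read-outs here: colony formation assay with 24 h compound exposure at 37 °C, then 7–10 days drug-free regrowth, colonies stained with crystal violet, controls given medium alone.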 The conditions noted are these: for Selectivity: CV-1/EJ; for IC50: Homo sapiens, EJ, 24 h, Table IV, human bladder carcinoma, 24 hours treatment. In kind it is cell-based.
Another data set deals with human melanoma LOX. Description: survival of nude mice implanted with human melanoma LOX. The class given is in vivo, male athymic Swiss nu/nu mouse (human tumor). Conditions: Mus musculus, ip, 24 h, read-out: T/C.
[2] abbreviates: CV-1, Table III, normal monkey kidney epithelial cells, colony count after 7 to 10 days.
The mark [3] stands for this setting: human colon carcinoma, 24 hours treatment, colony count after 7 to 10 days.

Read-outs that look alike come from different tables or passages of the source. A value given as a limit tells only on which side of the number the result lay.

Procedure for CRL 1420 cells: (§2) Human colon carcinoma cell line CX-1 or normal monkey kidney epithelial cell line CV-1 was chosen as representatives of cancer cells and normal cells, respectively. […] CX-1 cells (2,000 cells/well) and CV-1 cells (1,000 cells/well) were plated in 24-well plastic culture plates. […] The control received culture media only. Cells were treated with compounds of General Formulas (I) to (V) at 37° C. for 24 hours. After rinsing with fresh culture medium three times, the cells were further incubated at 37° C. for 7 to 10 days. Cell colonies were fixed and stained with 2% crystal violet in 70% ethanol for 10 minutes and rinsed in water. […] The selectivity is defined as the ratio of IC50 for CV-1 and IC50 for CX-1.
Procedure for LOX cells: as §2

What is called IC50 is the concentration at which inhibition is half-maximal. With `CCN1C(=CC=C(Cl)C=Cc2sc3ccc4ccccc4c3[n+]2CC)Sc2ccc3ccccc3c21` [H, reference compound], the “toxicity to normal nude mice” value in the data set on normal nude mice is “highly toxic to normal nude mice”. The 50% inhibitory concentration (IC50) came to 0.1 µg/mL in the data set with CV-1 cells (setting [2]) and 0.04 µg/mL with CX-1 cells (setting [3]). Moreover, the “Selectivity (ratio of IC50 for CV-1 and IC50 for CX-1)” value with CX-1 cells stood at 2.5.

For the molecule `CCN1C(=CC(C)=Cc2sc3c4ccccc4ccc3[n+]2CC)Sc2c1ccc1ccccc21` [G, reference compound], the “toxicity to normal nude mice” value in the data set with normal nude mice is recorded as “highly toxic to normal nude mice”. Also, the concentration for half-maximal inhibition (IC50) is 0.1 µg/mL with CV-1 cells (setting [2]) and 0.02 µg/mL in the data set on CX-1 cells (setting [3]). Besides, the “Selectivity (ratio of IC50 for CV-1 and IC50 for CX-1)” value in the data set on CX-1 cells was 5.

In the case of `CCN1C(=CC=CC=Cc2sc3ccccc3[n+]2CC)Oc2ccccc21` [F, reference compound], the “toxicity to normal nude mice” value in the data set on normal nude mice was “less toxic to normal nude mice”. The IC50 is 1.5 µg/mL in the data set with CV-1 cells (setting [2]) and 0.03 µg/mL with CX-1 cells (setting [3]). For the same molecule, in the data set on CX-1 cells, the “Selectivity (ratio of IC50 for CV-1 and IC50 for CX-1)” value is on record as 50.

`CCCN1C(=CC=CC=Cc2oc3ccccc3[n+]2CCC)Oc2ccccc21` [E, reference compound]: in the data set with normal nude mice, the “toxicity to normal nude mice” value is recorded as “less toxic to normal nude mice”. In addition, the half-inhibitory concentration (IC50) in the data set with CV-1 cells (setting [2]) was 6 µg/mL; in the data set with CX-1 cells (setting [3]), 0.5 µg/mL. In addition, the “Selectivity (ratio of IC50 for CV-1 and IC50 for CX-1)” value with CX-1 cells amounted to 12.

For the molecule `CCN1C(=CC=Cc2sc3c4ccccc4ccc3[n+]2CC)Sc2c1ccc1ccccc21` [B, reference compound], in the data set on normal nude mice, the “toxicity to normal nude mice” value is given as “highly toxic to normal nude mice”. In addition, the values for the IC50 in the data set on CV-1 cells (setting [2]) and in the data set with CX-1 cells (setting [3]) were less than 0.1 µg/mL and 0.05 µg/mL, respectively. The “Selectivity (ratio of IC50 for CV-1 and IC50 for CX-1)” value with CX-1 cells is on record as less than 2.

As to `CCn1c(=CC2=[N+](CC)CCS2)sc(=C2Sc3ccccc3N2C)c1=O` [Compound 16], the Selectivity was 333 with MCF-7 cells, 285 with CRL 1420 cells, 222 with LOX cells and 100 in the data set with EJ cells. Moreover, the “MCF-7(IC50)” value in the data set with MCF-7 cells (Table VI, human breast carcinoma, 24 hours treatment) is 0.06 µg/mL. Further, the 50% inhibitory concentration (IC50) amounted to 0.07 µg/mL in the data set with CRL 1420 cells; 20 µg/mL in the data set on CV-1 cells (CV-1, 24 h, Table IV); 20 µg/mL in the data set on CV-1 cells (CV-1, 24 h, Table V); 20 µg/mL in the data set with CV-1 cells (CV-1, 24 h, Table VI); 20 µg/mL with CV-1 cells (CV-1, 24 h, Table VII); 20 µg/mL in the data set on CV-1 cells (setting [2]). The molecule also gave a half-inhibitory concentration (IC50) in the data set on EJ cells of 0.2 µg/mL. Besides, the inhibition in vivo at 5 mg/kg in [1] (5 mg/kg i.p. on day 1, 5, 8, 12, 15, 19) was 82.9%. Moreover, in the data set with LOX cells (Table V, human melanoma, 24 hours treatment), the “LOX(IC50)” value came out at 0.09 µg/mL. Moreover, the “Selectivity (ratio of IC50 for CV-1 and IC50 for CX-1)” value in the data set with CX-1 cells is 667. In the data set on CX-1 cells (Table III, human colon carcinoma, 24 hours treatment, colony count after 7 to 10 days), the “CX-1 (IC50)” value was found to be 0.03 µg/mL. In addition, the response vs control in vivo at 5 mg/kg in the data set with human melanoma LOX (5 mg/kg i.p. on day 1, 4, 8, 11) is 147%.

Turning to `CCn1c(=C2CCC[n+]3c2sc2ccccc23)sc(=C2Sc3ccccc3N2C)c1=O` [Compound 39], the Selectivity stood at 222 with MCF-7 cells, 400 in the data set with CRL 1420 cells, 666 in the data set on LOX cells and 500 in the data set with EJ cells. Further, the half-inhibitory concentration (IC50) was determined as 0.09 µg/mL with MCF-7 cells (Homo sapiens, MCF7, 24 h, Table VI, human breast carcinoma, 24 hours treatment); 0.05 µg/mL in the data set with CRL 1420 cells; 0.03 µg/mL with LOX cells (Homo sapiens, LOX, 24 h, Table V, human melanoma, 24 hours treatment); 20 µg/mL in the data set with CV-1 cells (CV-1, 24 h, Table IV); 20 µg/mL in the data set on CV-1 cells (CV-1, 24 h, Table V); 20 µg/mL in the data set with CV-1 cells (CV-1, 24 h, Table VI). Further, the IC50 amounted to 20 µg/mL with CV-1 cells (CV-1, 24 h, Table VII); 20 µg/mL in the data set with CV-1 cells (setting [2]); 0.04 µg/mL in the data set with EJ cells; 0.04 µg/mL in the data set on CX-1 cells (setting [3]). Moreover, the inhibition in vivo at 5 mg/kg in data set [1] (5 mg/kg i.p. on day 1, 5, 8, 11) was determined as 74.9%. The “Selectivity (ratio of IC50 for CV-1 and IC50 for CX-1)” value in the data set on CX-1 cells was determined as 500. For the same molecule, the response vs control in vivo at 5 mg/kg with human melanoma LOX (5 mg/kg i.p. on day 1, 4, 11, 15, 18) stood at 154%.

For `CCN1/C(=C/C=C/c2sc3ccccc3[n+]2CC)Sc2ccccc21` [A, reference compound], in the data set with normal nude mice, the “toxicity to normal nude mice” value is “highly toxic to normal nude mice”. In the data set on CV-1 cells (setting [2]), the IC50 was 0.6 µg/mL.
